Values joined by “and” are separate entries in the source; they are usually repeats but may differ in a detail not shown here. Identical values can stand only once.
Experiments:
TGR-1 cells [1] = test: Immunofluorescent staining of Rad51 foci in nuclei and micronuclei; type: cell-based, rat
Procedure: (§1) Cell Culture. The sources of the cell lines were as follows. Rat TGR-1 cells, J. Sedivy. Brown University; mouse 3T3-Swiss cells, ATCC; human 293 kidney cells, ATCC; human teratoma cells, B. King, Yale University; human LNL8 fibroblasts, S. Meyn, Yale: human XPA and XPF fibroblasts, P Glazer, Yale.
(§2) Monolayer cultures were grown in D-MEM medium supplemented with 10% fetal bovine serum and antibiotics.
(§3) Immunofluorescent Staining.
(§4) Digital Imaging Microscopy.

TGR-1 cells [2] = test: Apoptosis by fluorescence in situ end labeling (FISEL); type: cell-based, rat; conditions: for Percentage of Apoptotic Cells: FISEL+
Procedure: Fluorescence In Situ End Labeling (FISEL). FISEL detects cell death (apoptosis) in situ by quantitating DNA strand breaks in individual nuclei. It uses terminal transferase (TdT) to label the 3'-ends in fragmented genomic DNA with biotinylated nucleotide. 100 µl of reaction mix contain 1 µl (25 Units) TdT (Boehringer Mannheim), 20 µl 5xTdT buffer (supplied with the enyzme), 1 µl 0.5 mM biotin-II-dUTP, 3 µl 0.5 mM dTTP, and 75 µl ddH2O. Cytological preprations are incubated at 37°C for 1 hr with this reaction mix. Washing the slides for 3x5 min in PBS is sufficient to terminate the reaction. The incorporated biotin-dUTP is detected with rhodarnine-conjugated avidin.
Another more classical way for inducing apoptosis in vitro is the exposure of TGR-1 cells to the topoisomerase II inhibitor etoposide.

LNL8 fibroblasts = test: Immunofluorescent staining of Rad51 foci in nuclei and micronuclei; type: cell-based, human
Procedure: as §1, §2, §3, §4

TGR-1 cells [3] = system: TGR-1 cells
[4] = TGR-1, 2 hrs in medium containing etoposide
[5] = TGR-1, 5 hrs in medium containing etoposide
[6] = TGR-1, 12 hrs in medium containing etoposide
[7] = TGR-1, 18 hrs in medium containing etoposide
[8] = TGR-1, 24 hrs in medium containing etoposide
[9] = TGR-1, 36 hrs in medium containing etoposide
[10] = TGR-1, 10^-5 M 5-aza-dC added 24 hrs before cell harvest
[11] = LNL8, 10^-5 M 5-aza-dC added 24 hrs before cell harvest

Question: How did the “Percentage of Cells with Type I Foci in Micronuclei” value (TGR-1 cells [1]; [4]) turn out when COc1cc([C@@H]2c3cc4c(cc3[C@@H](O[C@@H]3O[C@@H]5CO[C@@H](C)O[C@H]5[C@H](O)[C@H]3O)[C@H]3COC(=O)[C@H]23)OCO4)cc(OC)c1O [etoposide] was run?
Answer: 1%

Question: And the “Percentage of Cells with Type I Foci in Nuclei” value (TGR-1 cells [1]; [4])?
Answer: 4%

Question: And the “Percentage of Cells with Type II Foci in Micronuclei” value (TGR-1 cells [1]; [4])?
Answer: 2%

Question: And the “Percentage of Cells with Type II Foci in Nuclei” value (TGR-1 cells [1]; [4])?
Answer: 1%

Question: What about the “Percentage of Cells without Foci” value (TGR-1 cells [1]; [4]) of the same molecule?
Answer: 92%

Question: And the “Percentage of Cells with Type I Foci in Micronuclei” value (TGR-1 cells [1]; [5])?
Answer: 2%

Question: And the “Percentage of Cells with Type I Foci in Nuclei” value (TGR-1 cells [1]; [5])?
Answer: 3%

Question: And the “Percentage of Cells with Type II Foci in Micronuclei” value (TGR-1 cells [1]; [5])?
Answer: 2%

Question: What about the “Percentage of Cells with Type II Foci in Nuclei” value (TGR-1 cells [1]; [5]) of the same molecule?
Answer: 1%

Question: What about the “Percentage of Cells without Foci” value (TGR-1 cells [1]; [5]) of the same molecule?
Answer: 92%

Question: What about the “Percentage of Cells with Type I Foci in Micronuclei” value (TGR-1 cells [1]; [6]) of the same molecule?
Answer: 2%

Question: What about the “Percentage of Cells with Type I Foci in Nuclei” value (TGR-1 cells [1]; [6]) of the same molecule?
Answer: 8%

Question: What about the “Percentage of Cells with Type II Foci in Micronuclei” value (TGR-1 cells [1]; [6]) of the same molecule?
Answer: 2%

Question: And the “Percentage of Cells with Type II Foci in Nuclei” value (TGR-1 cells [1]; [6])?
Answer: 1%

Question: What about the “Percentage of Cells without Foci” value (TGR-1 cells [1]; [6]) of the same molecule?
Answer: 87%

Question: What about the “Percentage of Cells with Type I Foci in Micronuclei” value (TGR-1 cells [1]; [7]) of the same molecule?
Answer: 8%

Question: What about the “Percentage of Cells with Type I Foci in Nuclei” value (TGR-1 cells [1]; [7]) of the same molecule?
Answer: 3%

Question: What about the “Percentage of Cells with Type II Foci in Micronuclei” value (TGR-1 cells [1]; [7]) of the same molecule?
Answer: 9%

Question: What about the “Percentage of Cells with Type II Foci in Nuclei” value (TGR-1 cells [1]; [7]) of the same molecule?
Answer: 1%

Question: And the “Percentage of Cells without Foci” value (TGR-1 cells [1]; [7])?
Answer: 79%

Question: What about the “Percentage of Cells with Type I Foci in Micronuclei” value (TGR-1 cells [1]; [8]) of the same molecule?
Answer: 2%

Question: And the “Percentage of Cells with Type I Foci in Nuclei” value (TGR-1 cells [1]; [8])?
Answer: 2%

Question: And the “Percentage of Cells with Type II Foci in Micronuclei” value (TGR-1 cells [1]; [8])?
Answer: 8%

Question: What about the “Percentage of Cells with Type II Foci in Nuclei” value (TGR-1 cells [1]; [8]) of the same molecule?
Answer: 6%

Question: And the “Percentage of Cells without Foci” value (TGR-1 cells [1]; [8])?
Answer: 82%

Question: What about the “Percentage of Cells with Type I Foci in Micronuclei” value (TGR-1 cells [1]; [9]) of the same molecule?
Answer: 5%

Question: What about the “Percentage of Cells with Type I Foci in Nuclei” value (TGR-1 cells [1]; [9]) of the same molecule?
Answer: 2%

Question: What about the “Percentage of Cells with Type II Foci in Micronuclei” value (TGR-1 cells [1]; [9]) of the same molecule?
Answer: 9%

Question: And the “Percentage of Cells with Type II Foci in Nuclei” value (TGR-1 cells [1]; [9])?
Answer: 1%

Question: What about the “Percentage of Cells without Foci” value (TGR-1 cells [1]; [9]) of the same molecule?
Answer: 83%

Question: What about the “Percentage of Apoptotic Cells” value (TGR-1 cells [2]; 12 hrs in medium containing etoposide) of the same molecule?
Answer: 17%

Question: And the “Percentage of Apoptotic Cells” value (TGR-1 cells [2]; 18 hrs in medium containing etoposide)?
Answer: 24%

Question: What about the “Percentage of Apoptotic Cells” value (TGR-1 cells [2]; 24 hrs in medium containing etoposide) of the same molecule?
Answer: 33%

Question: What about the “cells showing genome fragmentation, stained FISEL-positively” value (TGR-1 cells [2]; 36 hrs after adding etoposide to the culture medium) of the same molecule?
Answer: half

Question: And the “Percentage of Apoptotic Cells” value (TGR-1 cells [2]; 36 hrs in medium containing etoposide)?
Answer: 47%

Question: For Nc1ncn([C@H]2C[C@H](O)[C@@H](CO)O2)c(=O)n1 [5-aza-dC, 5-azadeoxycytidine], which “cells displaying MN with focally concentrated Rad51 protein” value (TGR-1 cells [1]; Rat TGR-1 cultures, non-lethal doses of 5-aza-dC, range stated jointly with LNL8) is on record?
Answer: 5-10%

Question: And the “Percentage of Cells with Type I Foci in Micronuclei” value (TGR-1 cells [1]; [10])?
Answer: 4%

Question: And the “Percentage of Cells with Type I Foci in Nuclei” value (TGR-1 cells [1]; [10])?
Answer: 5%

Question: And the “Percentage of Cells with Type II Foci in Micronuclei” value (TGR-1 cells [1]; [10])?
Answer: 4%

Question: What about the “Percentage of Cells with Type II Foci in Nuceli” value (TGR-1 cells [1]; [10]) of the same molecule?
Answer: 1%

Question: And the “Percentage of Cells without Foci” value (TGR-1 cells [1]; [10])?
Answer: 86%

Question: And the “Percentage of Cells with Type I Foci in Micronuclei” value (LNL8 fibroblasts; [11])?
Answer: 1%

Question: And the “Percentage of Cells with Type I Foci in Nuclei” value (LNL8 fibroblasts; [11])?
Answer: 3%

Question: What about the “Percentage of Cells with Type II Foci in Micronuclei” value (LNL8 fibroblasts; [11]) of the same molecule?
Answer: 5%

Question: What about the “Percentage of Cells with Type II Foci in Nuceli” value (LNL8 fibroblasts; [11]) of the same molecule?
Answer: 2%

Question: And the “Percentage of Cells without Foci” value (LNL8 fibroblasts; [11])?
Answer: 89%

Question: And the “cells displaying MN with focally concentrated Rad51 protein” value (LNL8 fibroblasts; human LNL8 fibroblast cultures, non-lethal doses of 5-aza-dC, range stated jointly with TGR-1)?
Answer: 5-10%

Question: How did the “Percentage of Cells Showing Rad 51+/ FISEL+” value (TGR-1 cells [3]) turn out when CN[C@H]1CCc2cc(OC)c(OC)c(OC)c2-c2ccc(OC)c(=O)cc21 [Colcemid, colcemid] was run?
Answer: 0% and 1% and 6% and 4%

Question: And the “Percentage of Cells Showing Rad51-/ FISEL-” value (TGR-1 cells [3])?
Answer: 85% and 54% and 45% and 43%

Question: What about the “induced MN containing very brightly fluorescing Rad51 foci” value (TGR-1 cells [3]) of the same molecule?
Answer: over 30%
